According to patent publication US20040044304A1, “Local drug delivery using photosensitizer-mediated and electromagnetic radiation enhanced vascular permeability” (priority 2002, published 2004):
Like-named read-outs stand apart in the source and are kept apart here.

Legend:
[1] = Molar extinction coefficient of the photosensitizer; format: physicochemical; set-up: Molar extinction coefficient: unit not given here; details: for Peak extinction coefficient: in M-1 cm-1 (unit assumed)
[2] = tested on: blood vessels within the dorsal window chamber; format: in vivo, Syrian golden hamsters; details: for Observations 24 hr post FITC-Dextran administration / Observations immediately post FITC-Dextran administration (extravasation): blue 425 nm; for Leakage of FITC-Dextran, dependence on presence of photosensitizer: light doses used in the evaluable animals of Tables 1-4
Excerpt: Syrian golden hamsters (Charles River Laboratories, Kingston, N.Y.) weighing between 60-70 gram were surgically implanted with titanium back-pack window chambers as described ([…] et al., 1980; Colantuoni et al., 1984; […] et al., 1994). Prior to the surgical procedure, the dorsal surface of the mouse was shaved with electric clippers (Sunbeam Oster 2-Speed, 150 Cadillac Lane, McMinnville, Tenn., 37110) and then the shaved skin covered in a depilatory cream (Nair, Carter Products, New York, N.Y., 10105) for 10 minutes to remove the remaining hair. A dorsal skin fold consisting of two layers of skin and muscle tissue was then sandwiched between two opposing titanium frames (Campus Research Machine Shop, University of California, San Diego 9500 Gilman Drive, La Jolla, Calif.) with a 15 mm circular opening in each. Layers of skin and muscle fascia were separated from the sub-cutaneous tissue, and removed until a thin monolayer of muscle and one layer of intact skin remained. A coverglass (Type Circle 1, Part #12-545-80 sourced from Fisher Scientific, 2761 Walnut Avenue, Tustin, Calif., 92780) held by an expansion ring in the circular window of one titanium frame was then placed on the exposed tissue to allow direct microscopic visualization of the vasculature. The window in the second opposing titanium frame was left open exposing the intact skin. Two days following the implantation of the titanium chamber, an in-dwelling PE10 catheter (VVR Scientific, Westchester, Pa.) was implanted in the carotid artery. The catheter tubing was passed sub-cutaneously from the ventral to the dorsal side of the neck, and exteriorized through the skin at the base of the chamber. The patency of the catheter was ensured by daily flushing of the in-dwelling implanted tip with 0.005-0.01 ml of heparinized saline (40 IU/ml). The heparin was sourced from Upjohn Co., 100 Route […], Prepack, N.J., 07977, and the saline from Abbott Laboratories, North Chicago, Ill., 60064. Microvascular observations using an intra-vital microscope were not undertaken until at least 4 days post-chamber implantation to mitigate against post-surgical trauma, and to confirm that blood vessels within the chamber were functioning and intact and patent. A chamber was considered suitable for subsequent studies if microscopic examination of the preparation met the following criteria (as applied in […] et al., 1994): The intra-vital microscopic studies were undertaken on un-sedated animals held in a Plexiglass tube (Campus Research Machine Shop, University of California, San Diego 9500 Gilman Drive, La Jolla, Calif.) from which the window chamber sandwich protruded horizontally, allowing visualization of the chamber on the microscope stage. The Plexiglass tube acted to restrain the animals without impeding respiration. The intra-vital microscopy was performed using a Leitz Ortholux II (McBain Instruments, Inc., 9601 […] Avenue, Chatsworth, Calif., 91311) fitted with a Leitz Wetzlar 25× saline immersion objective lens, 0.6 numerical aperture (McBain Instruments, Inc., 9601 […] Avenue, Chatsworth, Calif., 91311), a Leitz Wetzlar 10× dry Planfluotar lens, 0.3 numerical aperture (McBain Instruments, Inc., 9601 […] Avenue, Chatsworth, Calif., 91311) and a Leitz Wetzlar 4× EF dry lens, 0.12 numerical aperture (McBain Instruments, Inc., 9601 […] Avenue, Chatsworth, Calif., 91311). A 100 Watt Hg light source (Olympus Corporation, 2 Corporate Center Drive, Melville, N.Y., 11747-3157) was used for both trans- and epi-illumination. For the trans-illumination studies the light was filtered using a 420 nm blue filter which selectively passed light in the region of the maximum absorbance band of hemoglobin, causing the red blood cells to appear as dark objects against a gray background. In addition, a heat filter was placed in the light path prior to the condenser to prevent hyperthermic effects on the tissue being examined.

Row | SMILES | Peak extinction coefficient ([1]; at 437 nm) | Peak extinction coefficient ([1]; at 661 nm) | Absorbance at activation wavelength relative to peak spectral absorbance ([1]; green 530 nm-560 nm) | Molar extinction coefficient ([1]; green wavelength band 530 nm-560 nm) | Observations 24 hr post FITC-Dextran administration ([2]; hamster A69, SnET2 1.0 mg/kg i.c., 25 J/cm^2, 44 mW/cm^2) | Observations immediately post FITC-Dextran administration (extravasation) ([2]; hamster A69, SnET2 1.0 mg/kg i.c., 25 J/cm^2, 44 mW/cm^2, FITC-Dextran approx. 45 min post PhotoPoint therapy) | Observations 24 hr post FITC-Dextran administration ([2]; hamster A70, SnET2 1.0 mg/kg i.c., 50 J/cm^2, 44 mW/cm^2) | Observations immediately post FITC-Dextran administration (extravasation) ([2]; hamster A70, SnET2 1.0 mg/kg i.c., 50 J/cm^2, 44 mW/cm^2, FITC-Dextran approx. 60 min post PhotoPoint therapy) | Effect on venules and veins during PhotoPoint therapy ([2]; hamster, in vivo) | Focal constrictions apparent in arterioles and arteries, time following the commencement of PhotoPoint therapy ([2]; hamster, in vivo) | Leakage of FITC-Dextran, dependence on presence of photosensitizer [2] | Observations immediately post FITC-Dextran administration (extravasation) ([2]; hamster A41, MV6401 0.05 mg/kg i.c., 50 J/cm^2, 80 mW/cm^2, FITC-Dextran approx. 30 min post PhotoPoint therapy) | Observations 24 hr post FITC-Dextran administration ([2]; hamster A46, MV6401 0.15 mg/kg i.c., 50 J/cm^2, 56.6 mW/cm^2) | Observations immediately post FITC-Dextran administration (extravasation) ([2]; hamster A46, MV6401 0.15 mg/kg i.c., 50 J/cm^2, 56.6 mW/cm^2, FITC-Dextran approx. 50 min post PhotoPoint therapy) | Dilation apparent in venules and veins, time following the commencement of PhotoPoint therapy ([2]; hamster, in vivo) | Edema apparent in tissue in chamber, 24 hr post FITC-Dextran administration ([2]; hamster, in vivo, 0.05 mg/kg) | Vascular damage, 24 hr post FITC-Dextran administration ([2]; hamster, in vivo, 0.05 mg/kg)
1 | CCOC(=O)C1=Cc2c3nc(cc4nc(cc5[n-]c(cc6[n-]c2c(C)c6CC)c(C)c5CC)C(C)=C4CC)[C@@H](C)[C@]13CC.[Cl-].[Cl-].[Sn] (racemic) [SnET2, tin ethyl etiopurpurin] | 165,456 | 52,552 | less than 5% | 4312 | Results as for Animal A35. | Results as for Animal A35. | Results as for Animal A35. | Results as for Animal A35. | some minor constriction | ≤ 30 s | only occurred when the photosensitizer (either MV6401 or SnET2) was present |  |  |  |  |  | 
2 | C=Cc1c(C)c2[n]3c1=CC1=NC(=Cc4c(C)c5c([n]4[In]3[Cl])C(=C3N=C(C=2)[C@@H](C)[C@@H]3CCC(=O)OC)CC5=O)C(CC)=C1C [MV6401, indium methyl pyropheophorbide] |  |  |  |  |  |  |  |  |  | ≤ 30 s | only occurred when the photosensitizer (either MV6401 or SnET2) was present | Results as for Animal A35 | Results as for Animal A35. | Results as for Animal A35. | ≤ 30 s | vascular damage. Severe | Gross and microscopic
